{"source": "PubChem BioAssay AID1259407", "about": "(Chemical Carcinogenesis Research Information System (CCRIS), 2018)", "tested_on": "CCRIS mutagenicity, Ames/micronucleus/aberration tests", "experiment": "CCRIS mutagenicity studies", "note": "Activity calls are given as the source filed them. The rule behind the calls is not given here.", "data": [{"smiles": "CCCl", "values": [{"measurement": "mutagenic call", "setting": "Test System: AMES SALMONELLA TYPHIMURIUM, Strain/Indicator: TA98, Metabolic Activation: NONE, Method: DESICCATOR", "value": "inactive; negative"}, {"measurement": "mutagenic call", "setting": "Test System: AMES SALMONELLA TYPHIMURIUM, Strain/Indicator: TA98, Metabolic Activation: NONE, Method: GAS EXPOSURE", "value": "inactive; negative"}, {"measurement": "mutagenic call", "setting": "Test System: AMES SALMONELLA TYPHIMURIUM, Strain/Indicator: TA98, Metabolic Activation: RAT LIVER S-9, PHENOBARBITAL AND BETA-NAPHTHOFLAVONE, Method: GAS EXPOSURE", "value": "inactive; negative"}, {"measurement": "mutagenic call", "setting": "Test System: AMES SALMONELLA TYPHIMURIUM, Strain/Indicator: TA98, Metabolic Activation: RAT, LIVER, S-9, AROCLOR 1254 (30%), Method: DESICCATOR", "value": "inactive; negative"}, {"measurement": "mutagenic call", "setting": "Test System: AMES SALMONELLA TYPHIMURIUM, Strain/Indicator: TA98, Metabolic Activation: RAT, LIVER, S-9, PHENOBARBITAL AND 5,6-BENZOFLAVONE, Method: GAS EXPOSURE", "value": "inactive; negative"}, {"measurement": "mutagenic call", "setting": "Test System: AMES SALMONELLA TYPHIMURIUM, Strain/Indicator: TA100, Metabolic Activation: HAMSTER, LIVER, S-9, AROCLOR 1254 (30%), Method: DESICCATOR", "value": "inactive; negative"}, {"measurement": "mutagenic call", "setting": "Test System: AMES SALMONELLA TYPHIMURIUM, Strain/Indicator: TA100, Metabolic Activation: NONE, Method: DESICCATOR", "value": "inactive; negative"}, {"measurement": "mutagenic call", "setting": "Test System: AMES SALMONELLA TYPHIMURIUM, Strain/Indicator: TA100, Metabolic Activation: NONE, Method: GAS EXPOSURE", "value": "active; positive"}, {"measurement": "mutagenic call", "setting": "Test System: AMES SALMONELLA TYPHIMURIUM, Strain/Indicator: TA100, Metabolic Activation: RAT LIVER S-9, PHENOBARBITAL AND BETA-NAPHTHOFLAVONE, Method: GAS EXPOSURE", "value": "active; positive"}, {"measurement": "mutagenic call", "setting": "Test System: AMES SALMONELLA TYPHIMURIUM, Strain/Indicator: TA100, Metabolic Activation: RAT, LIVER, S-9, PCB, Method: GAS EXPOSURE", "value": "inactive; negative"}, {"measurement": "mutagenic call", "setting": "Test System: AMES SALMONELLA TYPHIMURIUM, Strain/Indicator: TA100, Metabolic Activation: RAT, LIVER, S-9, PHENOBARBITAL AND 5,6-BENZOFLAVONE, Method: GAS EXPOSURE", "value": "active; positive"}, {"measurement": "mutagenic call", "setting": "Test System: AMES SALMONELLA TYPHIMURIUM, Strain/Indicator: TA1535, Metabolic Activation: HAMSTER, LIVER, S-9, AROCLOR 1254 (30%), Method: DESICCATOR", "value": "active; positive"}, {"measurement": "mutagenic call", "setting": "Test System: AMES SALMONELLA TYPHIMURIUM, Strain/Indicator: TA1535, Metabolic Activation: NONE, Method: DESICCATOR", "value": "active; positive"}, {"measurement": "mutagenic call", "setting": "Test System: AMES SALMONELLA TYPHIMURIUM, Strain/Indicator: TA1535, Metabolic Activation: NONE, Method: GAS EXPOSURE", "value": "active; positive"}, {"measurement": "mutagenic call", "setting": "Test System: AMES SALMONELLA TYPHIMURIUM, Strain/Indicator: TA1535, Metabolic Activation: RAT LIVER S-9, PHENOBARBITAL AND BETA-NAPHTHOFLAVONE, Method: GAS EXPOSURE", "value": "active; positive"}, {"measurement": "mutagenic call", "setting": "Test System: AMES SALMONELLA TYPHIMURIUM, Strain/Indicator: TA1535, Metabolic Activation: RAT, LIVER, S-9, AROCLOR 1254 (30%), Method: DESICCATOR", "value": "active; positive"}, {"measurement": "mutagenic call", "setting": "Test System: AMES SALMONELLA TYPHIMURIUM, Strain/Indicator: TA1535, Metabolic Activation: RAT, LIVER, S-9, PHENOBARBITAL AND 5,6-BENZOFLAVONE, Method: GAS EXPOSURE", "value": "active; positive"}, {"measurement": "mutagenic call", "setting": "Test System: AMES SALMONELLA TYPHIMURIUM, Strain/Indicator: TA1537, Metabolic Activation: NONE, Method: GAS EXPOSURE", "value": "inactive; negative"}, {"measurement": "mutagenic call", "setting": "Test System: AMES SALMONELLA TYPHIMURIUM, Strain/Indicator: TA1537, Metabolic Activation: RAT LIVER S-9, PHENOBARBITAL AND BETA-NAPHTHOFLAVONE, Method: GAS EXPOSURE", "value": "inactive; negative"}, {"measurement": "mutagenic call", "setting": "Test System: AMES SALMONELLA TYPHIMURIUM, Strain/Indicator: TA1537, Metabolic Activation: RAT, LIVER, S-9, PHENOBARBITAL AND 5,6-BENZOFLAVONE, Method: GAS EXPOSURE", "value": "inactive; negative"}, {"measurement": "mutagenic call", "setting": "Test System: CHINESE HAMSTER OVARY, Strain/Indicator: CHO-K1 (HPRT)/6-THIOGUANINE, Metabolic Activation: NONE", "value": "active; positive"}, {"measurement": "mutagenic call", "setting": "Test System: CHINESE HAMSTER OVARY, Strain/Indicator: CHO-K1 (HPRT)/6-THIOGUANINE, Metabolic Activation: RAT, LIVER, S-9, AROCLOR 1254", "value": "active; positive"}, {"measurement": "mutagenic call", "setting": "Test System: E. COLI, Strain/Indicator: WP2 UVRA (PKM101), Metabolic Activation: RAT, LIVER, S-9, PCB, Method: GAS EXPOSURE", "value": "inactive; negative"}, {"measurement": "mutagenic call", "setting": "Test System: E. COLI, Strain/Indicator: WP2 UVRA, Metabolic Activation: NONE, Method: GAS EXPOSURE", "value": "active; positive"}, {"measurement": "mutagenic call", "setting": "Test System: E. COLI, Strain/Indicator: WP2 UVRA, Metabolic Activation: RAT, LIVER, S-9, PCB, Method: GAS EXPOSURE", "value": "inactive; negative"}, {"measurement": "mutagenic call", "setting": "Test System: E. COLI, Strain/Indicator: WP2 UVRA, Metabolic Activation: RAT, LIVER, S-9, PHENOBARBITAL AND 5,6-BENZOFLAVONE, Method: GAS EXPOSURE", "value": "active; positive"}, {"measurement": "mutagenic call", "setting": "Test System: E.COLI, Strain/Indicator: WP2UVRA, Metabolic Activation: NONE, Method: GAS EXPOSURE", "value": "active; positive"}, {"measurement": "mutagenic call", "setting": "Test System: E.COLI, Strain/Indicator: WP2UVRA, Metabolic Activation: RAT LIVER S-9, PHENOBARBITAL AND BETA-NAPHTHOFLAVONE, Method: GAS EXPOSURE", "value": "active; positive"}, {"measurement": "mutagenic call", "setting": "Test System: UDS MOUSE HEPATOCYTES, Strain/Indicator: THY INCORP, Metabolic Activation: NONE, Method: IN VIVO-IN VITRO", "value": "inactive; negative"}]}, {"smiles": "Cc1ccc2nsc(NC(=O)C(Cl)(Cl)Cl)c2c1", "values": [{"measurement": "mutagenic call", "setting": "Test System: AMES SALMONELLA TYPHIMURIUM, Strain/Indicator: TA98, Metabolic Activation: NONE, Method: STANDARD PLATE", "value": "active; positive"}, {"measurement": "mutagenic call", "setting": "Test System: AMES SALMONELLA TYPHIMURIUM, Strain/Indicator: TA98, Metabolic Activation: S-9, Method: STANDARD PLATE", "value": "active; positive"}, {"measurement": "mutagenic call", "setting": "Test System: AMES SALMONELLA TYPHIMURIUM, Strain/Indicator: TA100, Metabolic Activation: NONE, Method: STANDARD PLATE", "value": "active; positive"}, {"measurement": "mutagenic call", "setting": "Test System: AMES SALMONELLA TYPHIMURIUM, Strain/Indicator: TA100, Metabolic Activation: S-9, Method: STANDARD PLATE", "value": "active; positive"}, {"measurement": "mutagenic call", "setting": "Test System: AMES SALMONELLA TYPHIMURIUM, Strain/Indicator: TA1535, Metabolic Activation: NONE, Method: STANDARD PLATE", "value": "inactive; negative"}, {"measurement": "mutagenic call", "setting": "Test System: AMES SALMONELLA TYPHIMURIUM, Strain/Indicator: TA1535, Metabolic Activation: S-9, Method: STANDARD PLATE", "value": "inactive; negative"}, {"measurement": "mutagenic call", "setting": "Test System: AMES SALMONELLA TYPHIMURIUM, Strain/Indicator: TA1537, Metabolic Activation: NONE, Method: STANDARD PLATE", "value": "inactive; negative"}, {"measurement": "mutagenic call", "setting": "Test System: AMES SALMONELLA TYPHIMURIUM, Strain/Indicator: TA1537, Metabolic Activation: S-9, Method: STANDARD PLATE", "value": "inactive; negative"}]}]}
